Measured values published in publication PMC10747602, “Dose Response, Dosimetric, and Metabolic Evaluations of Replacement PFAS Perfluoro-(2,5,8-trimethyl-3,6,9-trioxadodecanoic) Acid (HFPO-TeA)” (Toxics, 2023).
Several values for one entry are separate records, joined by “and”; a condition that tells them apart may be missing. Equal values may be shown once.

What was measured:
Format in all cases: in vitro ADME
[1] = Ultracentrifugation plasma protein binding assay, rat plasma; details: both sexes, Sprague Dawley, rat, rat plasma, 10000 nM
Procedure: (§1) Information on the chemicals and materials used in the plasma protein binding work can be found in Supplementary Text S10 and Table S3. Human and rodent plasma were evaluated for plasma protein binding using ultracentrifugation, as previously described. Working solutions of 3 mM of HFPO-DA, HFPO-TA, and HFPO-TeA were prepared separately in ethanol, with each working solution containing 3 mM of testosterone (Sigma-Aldrich; ≥98% pure) as a reference compound for assay performance. An aliquot of each stock solution (13.3 µL) was added to separate 15 mL tubes with 3.987 mL of plasma for a final assay concentration of 10 µM. The plasma solutions were incubated at 37 °C and 125 rpm for 60 min. One-hour stability samples (T60 min) were drawn in triplicate and diluted in four volumes of plasma ultrafiltrate. Aliquots (1 mL) from each plasma solution were drawn in triplicate and transferred to polycarbonate tubing. These samples underwent ultracentrifugation (Beckman OptimaMax; Beckman Coulter Inc., Brea, CA, USA) at 850,000× g for 4 h at 37 °C.
(§2) The remaining plasma solutions were returned for incubation at 37 °C and 125 rpm for an additional 4 h. Five-hour stability samples (T300 min) were then drawn in triplicate and diluted in four volumes of plasma ultrafiltrate. After ultracentrifugation, the aqueous fraction (AF) was collected by transferring the supernatant to a new tube and diluting in an equal volume of plasma for matrix matching. All samples were combined with 3 volumes of ice-cold ACN containing 16 ng/mL of ^13C3-HFPO-DA and 16 ng/mL of ^13C-Testosterone (Cambridge Isotope Laboratories; 98% pure). Samples were vigorously mixed, stored for 10 min at −20 °C, and then centrifuged at 12,000× g for 10 min at 4 °C. Supernatants were collected then stored at −70 °C prior to analysis.
(§3) Fraction unbound (fu) in plasma (fup) and percent stability calculations are detailed in Supplementary Text S10. Hepatic clearance, the fu in blood (fub) (fu in plasma adjusted for blood:plasma partitioning), and renal clearance were used to derive the steady-state concentration (Css) of each compound that will be used for in vitro–in vivo extrapolation (IVIVE). Renal clearance was calculated using the glomerular filtration rate (a species-dependent constant) and the fub. The Css calculation is detailed in Supplementary Text S11.
(§4) The gradient is available in Table S11. […]
(§5) Chemical stability in plasma was assessed
(§6) (F) Percent Stability = T300minutesT60minutes∗100

[2] = test system: Sprague Dawley rodent plasma; test: as above; details: rat plasma, 10000 nM
Procedure: as §1, §2, §3, §4, §5, §6

[3] = Ultracentrifugation plasma protein binding assay, human plasma; details: both sexes, human
Procedure: as §1, §2, §3, §4, §5, §6

Human plasma = test: as above; details: for Experimental fup (average fraction unbound in plasma): 10 µM, ultracentrifugation; for Average Stability (T5hr/ T1hr) / Aqueous Fraction concentration / Fraction Unbound in plasma (fup) / Stability (T5hr/ T1hr) / Time 1 hr concentration / Time 5 hr concentration: 10000 nM; for Average Stability (T5hr/ T1hr): 37 °C; for Aqueous Fraction concentration: after ultracentrifugation; for Aqueous Fraction concentration / Fraction Unbound in plasma (fup) / Stability (T5hr/ T1hr) / Time 1 hr concentration / Time 5 hr concentration: replicates A-C
Procedure: as §1, §2, §3, §4, §5, §6

## C[C@]12CC[C@H]3[C@@H](CCC4=CC(=O)CC[C@@]43C)[C@@H]1CC[C@@H]2O [Testosterone]
[1]; Rep A, read-out: Fraction Unbound in plasma (fup), Rep A
  fraction unbound at 4 h, 10 µM: 0.0553
[1]; Rep B, read-out: Fraction Unbound in plasma (fup), Rep B
  fraction unbound at 4 h, 10 µM: 0.0589
[1]; Rep C, read-out: Fraction Unbound in plasma (fup), Rep C
  fraction unbound at 4 h, 10 µM: 0.0507
[1]; ultracentrifugation, read-out: Average fup (fraction unbound in plasma)
  fraction unbound at 4 h, 10 µM: 0.0549
[2]
  Average Stability (T5hr/ T1hr): 1.0825 and 0.9487 and 1.0344
[2]; Rep A
  Aqueous Fraction, Rep A: 659.2 nM and 463 nM and 481 nM
  Fraction Unbound in plasma (fup), Rep A: 0.05346 and 0.05095
  Stability (T5hr/ T1hr), Rep A: 1.0325 and 0.8708 and 1.0149
  Time 1 hr concentration, Rep A: 11.552 µM and 9.9536 µM and 9.3008 µM
  Time 5 hr concentration, Rep A: 11.928 µM and 8.6672 µM and 9.4392 µM
[2]; Rep B
  Aqueous Fraction, Rep B: 678.4 nM and 491 nM and 472 nM
  Fraction Unbound in plasma (fup), Rep B: 0.0545
  Stability (T5hr/ T1hr), Rep B: 1.1304 and 0.9004
  Time 1 hr concentration, Rep B: 10.184 µM and 10.0112 µM and 8.783 µM
  Time 5 hr concentration, Rep B: 11.512 µM and 9.0136 µM
[2]; Rep C
  Aqueous Fraction, Rep C: 681.6 nM and 481.28 nM and 439 nM
  Fraction Unbound in plasma (fup), Rep C: 0.04493 and 0.05209
  Stability (T5hr/ T1hr), Rep C: 1.0845 and 1.0750 and 1.0540
  Time 1 hr concentration, Rep C: 12.408 µM and 9.964 µM and 7.99 µM
  Time 5 hr concentration, Rep C: 13.456 µM and 10.7112 µM and 8.4216 µM
[2]; ultracentrifugation
  Average fup (fraction unbound in plasma): 0.0510 and 0.0515
[3]; plasma, 10 µM, ultracentrifugation, read-out: Experimental fup (average fraction unbound in plasma)
  fraction unbound at 4 h, 10 µM: 0.048
[3]; pooled human plasma, 10000 nM, replicates A-C, read-out: Fraction Unbound in plasma (fup)
  fraction unbound at 4 h, 10 µM: 0.0537
Human plasma
  Experimental fup (average fraction unbound in plasma): 0.0417
  Average Stability (T5hr/ T1hr): 1.1059 and 0.9812
  Aqueous Fraction concentration: 546.88 nM and 521.28 nM and 574.4 nM and 376.32 nM and 357.12 nM and 381.76 nM
  Fraction Unbound in plasma (fup): 0.0442 and 0.0462 and 0.0429 and 0.0406 and 0.0415
  Stability (T5hr/ T1hr): 0.9564 and 1.2770 and 1.0843 and 0.9797 and 0.9599 and 1.0039
  Time 1 hr concentration: 10.6456 µM and 9.2344 µM and 11.4704 µM and 8.9504 µM and 9.1664 µM and 9.1736 µM
  Time 5 hr concentration: 10.1816 µM and 11.792 µM and 12.4368 µM and 8.7688 µM and 8.7984 µM and 9.2096 µM
Human plasma; listed as Tesosterone
  Experimental fup (average fraction unbound in plasma): 0.0359
  Average Stability (T5hr/ T1hr): 1.0002
  Aqueous Fraction concentration: 293.12 nM and 277.12 nM and 292.16 nM
  Fraction Unbound in plasma (fup): 0.0369 and 0.0320 and 0.0386
  Stability (T5hr/ T1hr): 0.9569 and 1.1423 and 0.9014
  Time 1 hr concentration: 8.3008 µM and 7.576 µM and 8.3888 µM
  Time 5 hr concentration: 7.9432 µM and 8.6544 µM and 7.5616 µM
